Where a name gives a salt, the structure may show the parent alone.
Key:
CRF1 receptor = target: T1, CRF1 receptor (Homo sapiens, UniProt P34998); assay: CRF1 Receptor Binding Assay (competition binding, IMR-32 cell membranes); details: CRF1 affinity; [125I]Tyr0-ovine CRF, human IMR-32 neuroblastoma cell membranes
T1 construct: Cell membranes are prepared according the method of Dieterich and DeSouza (1996); endogenous in cells; host or cells: IMR-32 human neuroblastoma cells (membranes)
T1 sequence (P34998 24-415): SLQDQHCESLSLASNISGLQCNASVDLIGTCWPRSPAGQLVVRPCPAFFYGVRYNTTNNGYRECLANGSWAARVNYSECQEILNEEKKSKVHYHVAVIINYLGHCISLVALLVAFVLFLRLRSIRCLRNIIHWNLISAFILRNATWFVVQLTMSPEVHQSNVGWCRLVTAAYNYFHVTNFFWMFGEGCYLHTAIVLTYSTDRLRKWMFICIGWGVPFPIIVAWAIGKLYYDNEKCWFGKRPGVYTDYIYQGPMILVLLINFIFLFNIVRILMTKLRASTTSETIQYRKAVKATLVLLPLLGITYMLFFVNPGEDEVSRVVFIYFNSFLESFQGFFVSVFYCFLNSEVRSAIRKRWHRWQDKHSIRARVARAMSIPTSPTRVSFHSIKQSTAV
Method: Human IMR-32 neuroblastoma cells are grown to 80% confluence in MEM medium containing 10% heat-inactivated FBS, 1 mM Sodium Pyruvate, and 0.1 mM nonessential amino acids. Cell membranes are prepared according the method of Dieterich and DeSouza (1996). The cells (˜5E+9) are resuspended in 10 volumes of wash buffer (5 mM Tris HCl, 10 mM MgCl2, 2 mM EGTA, pH 7.4 at RT), homogenized with a Polytron, and then centrifuged at 45,000 G for 20 min at 4° C. The membrane pellets are washed twice with wash buffer (45,000 G for 20 min at 4° C.) and then resuspended (50 mM Tris HCl, 10 mM MgCl2, 2 mM EGTA, pH 7.4 at RT). Protein concentration is determined using Pierce reagents and BSA as standard. Aliquots of 1-1.5 mL are stored at −80° C. until binding assay.
The competition binding assay is performed in a final volume of 250 μl which contains assay buffer (50 mM Tris-HCl, 10 MM MgCl2, 2 mM EGTA, 0.2% BSA, 0.1 mM bacitracin and 100 kIU/mL aprotinin pH 7.2 at R.T.), 0.05 nM [^125I]Tyr^0-ovine CRF (Du Pont New England Nuclear), 50 μg of membrane protein, and test compound at various concentrations. Non-specific binding is determined with 1 μM hCRF. Binding reactions are terminated after 2 hr incubation at 25° C. by filtering through 96-w GF/C filter plate using a Packard Harvester (Filtermate 196). The 96-w filter plate is pre-treated with 0.3% polyethyleneimine and pre-washed with washing buffer (50 mM Tris-HCl, 10 mM MgCl2, 2 mM EGTA, 0.2% BSA, pH 7.2 at 4° C.). Unbound radioactivity is removed by four rapid washes (0.8 ml/well) with wash buffer. The radioactivity is quantified using a Packard TopCount. Data are analyzed using non-linear iterative curve fitting to obtain IC50 and Hill slope values. PKi values are derived from pIC50 values (−log of IC50).

Row | melting point [°C] | IC50 (CRF1 receptor) [nM] | Compound
1 | 238.3 to 243.9 | – | CCCC1(CCC)CCCc2c(Nc3ccc(Cl)cc3Cl)nc(C)nc21 (as salt: hydrochloride) [Compound 11, (2,4-Dichloro-phenyl)-(2-methyl-8,8-dipropyl-5,6,7,8-tetra-hydro-quinazolin-4-yl)-amine]
2 | – | 2820 | CCCN(CC1CC1)c1nc(C)nc2c1CCCC2c1ccccc1 (stereo not drawn) [Compound 1, Cyclopropylmethyl-(2-methyl-8-phenyl-5,6,7,8-tetra-hydro-quinazolin-4-yl)-propyl-amine]
3 | – | 525 | CCCN(CC1CC1)c1nc(C)nc2c1CCC[C@@]2(C)c1ccccc1 [Compound 2, Cyclopropylmethyl-((S)-2,8-dimethyl-8-phenyl-5,6,7,8-tetra-hydro-quinazolin-4-yl)-propyl-amine]
4 | – | 2340 | CCCN(CC1CC1)c1nc(C)nc2c1CCCC2c1ccc(Cl)cc1 (stereo not drawn) [Compound 3, [8-(4-Chloro-phenyl)-2-methyl-5,6,7,8-tetrahydro-quina-zolin-4-yl]-cyclopropylmethyl-propyl-amine]
5 | – | 1740 | CCCN(CC1CC1)c1nc(C)nc2c1CCCC2(C)c1ccc(Cl)cc1 (stereo not drawn) [Compound 4, [8-(4-chloro-phenyl)-2,8-dimethyl-5,6,7,8-tetra-hydro-quinazolin-4-yl]-cyclopropylmethyl-pro-pyl-amine]
6 | – | 28800 | COCCN(CCOC)c1nc(C)nc2c1CCCC2c1ccc(Cl)cc1 (stereo not drawn) [Compound 5, [8-(4-Chloro-phenyl)-2-methyl-5,6,7,8-tetrahydro-quina-zolin-4-yl]-bis-(2-methoxy-ethyl)-amine]
7 | – | 11700 | COCCN(CCOC)c1nc(C)nc2c1CCCC2(C)c1ccc(Cl)cc1 (stereo not drawn) [Compound 6, [8-(4-Chloro-phenyl)-2,8-dimethyl-5,6,7,8-tetra-hydro-quinazolin-4-yl]-bis-(2-methoxy-ethyl)-a-mine]
8 | – | 1120 | CCCN(CC1CC1)c1nc(C)nc2c1CCC2c1ccc(C)cc1C (stereo not drawn) [Compound 9, Cyclopropylmethyl-[7-(2,4-dimethyl-phenyl)-2-meth-yl-6,7-dihydro-5H-cyclopentapyrimidin-4-yl]-pro-pyl-amine]
9 | – | 661 | CCCN(CC1CC1)c1nc(C)nc2c1CCC2(C)c1ccc(C)cc1C (stereo not drawn) [Compound 10, Cyclopropylmethyl-[7-(2,4-dimethyl-phenyl)-2,7-di-methyl-6,7-dihydro-5H-cyclopentapyrimidin-4-yl]-pro-pyl-amine]

From US7223767B2, “Tetrahydroquinazolines and dihydrocyclopentapyrimidines as CRF antagonists” (Roche Palo Alto LLC, priority 2003, dated 2007)
